Measurements as given in patent publication US20210379100A1, “USE OF FUNCTIONALIZED CALCIUM CARBONATE AS ACTIVE INGREDIENT” (OMYA INTERNATIONAL AG, priority 2018, published 2021).

Test: Particle size distribution (Malvern Mastersizer 3000 laser diffraction / Sedigraph sedimentation)
Format: physicochemical
Text: The “particle size” of all particulate materials disclosed herein, with the exception of ground calcium carbonate and precipitated calcium carbonate, is described as volume-based particle size distribution dx(vol). Therein, the value dx(vol) represents the diameter relative to which x % by volume of the particles have diameters less than dx(vol). This means that, for example, the d20(vol) value is the particle size at which 20 vol % of all particles are smaller than that particle size. The d50(vol) value is thus the volume median particle size, i.e. 50 vol % of all particles are smaller than that particle size and the d98(vol) value, referred to as volume-based top cut, is the particle size at which 98 vol % of all particles are smaller than that particle size. […]
All particle sizes described herein, with the exception of the particle sizes of the ground calcium carbonate that was used for the production of the functionalized calcium carbonate and that of precipitated calcium carbonate, refer to the volume-based particle size distribution dx(vol). The volume-based median particle size d50(vol) and top cut d98(vol) are evaluated using a Malvern Mastersizer 3000 Laser Diffraction System (Malvern Instruments Plc., Great Britain). The raw data obtained by the measurement is analyzed using the Fraunhofer theory. […]

O.O.O.O.O=C([O-])CC(O)(CC(=O)[O-])C(=O)[O-].O=C([O-])CC(O)(CC(=O)[O-])C(=O)[O-].[Ca+2].[Ca+2].[Ca+2] [Calcium citrate tetrahydrate]
d50 (median particle size): 6.83 μm | d98 (top cut particle size): 80 μm
